Where two headings read alike, the source gives them in different places.
How the values were obtained:
[1] = target: T1, recombinant human Tie-2 protein (Homo sapiens, UniProt Q02763); assay: Z′-Lyte FRET enzymatic activity assay of Tie-2 kinase; format: biochemical; conditions: for Inhibition (%) @10 μg/ml / inhibition at 10 µg/mL: 10 μg/mL preliminary screening, Table S1; for inhibition at 5 µg/mL: read-out: Kinase Inhibition (%) at 5 μg/mL (± SD)
T1 construct: purchased Thermo Fisher Scientific Inc. PV3628
T1 sequence (Q02763 23-1124): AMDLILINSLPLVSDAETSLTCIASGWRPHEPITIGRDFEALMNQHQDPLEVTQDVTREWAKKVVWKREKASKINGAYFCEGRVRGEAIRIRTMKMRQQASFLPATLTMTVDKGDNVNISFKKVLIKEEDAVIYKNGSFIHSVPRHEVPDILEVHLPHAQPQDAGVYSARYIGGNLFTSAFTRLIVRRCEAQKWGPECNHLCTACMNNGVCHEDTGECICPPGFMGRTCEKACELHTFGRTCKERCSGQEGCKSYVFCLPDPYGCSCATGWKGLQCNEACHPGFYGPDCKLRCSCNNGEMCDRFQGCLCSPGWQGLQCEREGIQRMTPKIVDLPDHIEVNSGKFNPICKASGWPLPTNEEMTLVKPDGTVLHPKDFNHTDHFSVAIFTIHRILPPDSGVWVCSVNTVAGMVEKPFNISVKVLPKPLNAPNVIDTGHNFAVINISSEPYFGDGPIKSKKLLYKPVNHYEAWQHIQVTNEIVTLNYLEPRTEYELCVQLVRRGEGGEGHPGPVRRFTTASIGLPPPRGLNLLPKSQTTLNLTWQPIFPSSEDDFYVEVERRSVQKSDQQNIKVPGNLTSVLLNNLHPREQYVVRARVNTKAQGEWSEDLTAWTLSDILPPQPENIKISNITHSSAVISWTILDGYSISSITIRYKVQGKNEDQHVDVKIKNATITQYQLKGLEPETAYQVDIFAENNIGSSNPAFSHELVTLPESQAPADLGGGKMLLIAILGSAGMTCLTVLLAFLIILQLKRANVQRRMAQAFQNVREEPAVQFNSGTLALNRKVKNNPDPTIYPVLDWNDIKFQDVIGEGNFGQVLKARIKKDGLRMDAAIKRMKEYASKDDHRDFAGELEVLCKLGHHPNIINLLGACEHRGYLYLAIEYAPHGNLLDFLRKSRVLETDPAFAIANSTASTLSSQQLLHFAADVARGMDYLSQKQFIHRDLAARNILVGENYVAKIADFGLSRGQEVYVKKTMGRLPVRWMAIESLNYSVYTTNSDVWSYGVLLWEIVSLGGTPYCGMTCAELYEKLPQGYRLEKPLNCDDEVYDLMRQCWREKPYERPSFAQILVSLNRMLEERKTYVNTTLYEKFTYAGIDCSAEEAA
Method: In order to assess the biological inhibitory activity of the VS compounds, Z’-Lyte enzymatic activity assay based on FRET (Fluorescence Resonance Energy Transfer) technology was developed as described above. […] At first, all the compounds obtained from both filtering strategies were preliminary screened for their ability to inhibit Tie-2 kinase activity at the concentration of 10 μg/mL.
The Tie-2 kinase inhibitor (CAS#: 948557-43-5, purity ≥ 97%) was purchased from Merck Calbiochem (Darmstadt, Germany) and used as a positive control inhibitor in bioassays[40]. […] All the purchased screening compounds were firstly dissolved in dimethyl sulfoxide (DMSO) at a stock concentration of 5 mg/ml. The final working concentration of DMSO is less than 1%.
Compounds were tested for their ability to inhibit Tie-2 kinase activity using Z′-Lyte® kinase assay kit (ser/thr 5 peptide) with NUNC 384-well plate. In the first step, the test compounds and ATP solution were firstly prepared at 4 × desired concentration. The mixture of recombinant human Tie-2 protein and non-phosphorylated peptide at 2 × desired concentration was prepared in kinase reaction buffer A consisting of 50 mM HEPES (pH 7.5), 0.01% BRIJ-35, 10 mM MgCl2, 4 mM MnCl2, 1 mM EGTA and 2 mM DTT. Reactions were then carried out in a solution containing 2.5 μL test compounds, 5 μL Tie-2/Tyr 05 peptide mixture (10 ng Tie-2 and 2 μM Tyr 05 peptide) and 2.5 μL ATP (100 μM). Then, the assay plate was shaken for 30 seconds on a plate shaker, and incubated for 1 hour at room temperature (20~25 °C). After sufficient kinase reactions, 5 μL development reagent A was added to each well, and the plate was incubated for another hour. Finally, 5 μL stop reagent was added to terminate the reactions, and the coumarin and fluorescein emission signals (excitation: 400 nm; emission: 445 and 520 nm, respectively) were measured on a fluorescence plate reader (BioTek Synergy 4).

[2] = system: Tie-2; design: method as in PMID 17618114; conditions: tool inhibitor; read-out: IC50 against Tie-2, previously reported; cited from earlier work
[3] = Z′-Lyte assay, 100 μM ATP, n ≥ 2 per concentration, read-out: IC50 (half-maximal inhibitory concentration), Tie-2 kinase
[4] = in the dose-response figure, read-out: IC50 (dose-dependent inhibitory effect), Tie-2 kinase (converted)

Question: With Cc1ccc2nc(-c3ccc(NC(=S)NC(=O)COc4ccccc4C)cc3)sc2c1 [TP-C2-24] as the compound, how does the “Inhibition (%) @10 μg/ml” value [1] read?
Answer: 83.25±0.08%

Question: What about the IC50 [1, 3] of the same compound?
Answer: 17.5 ± 1.16 µM

Question: For CN(CCc1ccccn1)S(=O)(=O)c1ccc2c3c(cccc13)C(=O)N2 [TP-C2-25], which “Inhibition (%) @10 μg/ml” value [1] is on record?
Answer: -113.04±17.27%

Question: For Cc1ccccc1C(=O)Nc1cccc(Oc2ccc3c(c2)C(=O)NC3=O)c1 [TP-C2-26], which “Inhibition (%) @10 μg/ml” value [1] is on record?
Answer: 61.34±20.45%

Question: For Cc1ccccc1COc1ccc(-c2nnn(CC(=O)Nc3ccc4c(c3)OCO4)n2)cc1 [TP-C2-28], which “Inhibition (%) @10 μg/ml” value [1] is on record?
Answer: 40.32±14.48%

Question: Which “Inhibition (%) @10 μg/ml” value [1] does the source give for CC(C)CNC(=O)c1ccccc1NC(=O)c1ccccc1N(C)S(=O)(=O)c1ccccc1 [TP-C2-29] here?
Answer: 55.92±5.4%

Question: Which results are given for Cc1cc(NC(=S)NC(=O)c2ccc3c(c2)OCO3)ccc1NC(=O)c1ccccc1 [TP-C2-30]?
Answer: Inhibition (%) @10 μg/ml [1]: 81.26±3.96%; IC50 [1, 3]: 2.05 ± 0.11 µM

Question: Which “Inhibition (%) @10 μg/ml” value [1] does the source give for COc1ccc(-c2cc3ccccc3oc2=O)cc1NC(=O)c1cccnc1 [TP-C2-31] here?
Answer: 51.93±0.22%

Question: Which “Inhibition (%) @10 μg/ml” value [1] does the source give for O=C(NCc1n[nH]c(=O)c2ccccc12)c1cc2ccccc2oc1=O [TP-C2-32] here?
Answer: 66.52±7.26%

Question: For COC(=O)c1ccc(C)c(NC(=O)c2cc(-c3ccccn3)nc3ccc(Br)cc23)c1 [TP-C2-33], which inhibition at 10 µg/mL [1] is on record?
Answer: 95.2 ± 1.81%

Question: What about the IC50 [1, 3] of the same compound?
Answer: 3.31 ± 0.23 µM

Question: What about the IC50 [1, 4] of the same compound?
Answer: 3.32 µM

Question: Which “Inhibition (%) @10 μg/ml” value [1] does the source give for O=C(NCc1ccco1)c1cc(-c2ccccn2)nc2ccc(Cl)cc12 [TP-C2-35] here?
Answer: 87.59±3.7%

Question: And the IC50 [1, 3]?
Answer: 4.59 ± 0.29 µM

Question: Which “Inhibition (%) @10 μg/ml” value [1] does the source give for O=C(c1cc(-c2ccncc2)nc2ccc(Cl)cc12)N1CCN(C(=O)C2CCCO2)CC1 (stereo not drawn) [TP-C2-36] here?
Answer: 61.48±4.57%

Question: With Cc1ccc2nc(-c3ccccn3)cc(C(=O)NC3CCCc4ccccc43)c2c1 (stereo not drawn) [TP-C2-37] as the compound, how does the “Inhibition (%) @10 μg/ml” value [1] read?
Answer: 80.89±0.31%

Question: What about the IC50 [1, 3] of the same compound?
Answer: 10.8 ± 0.83 µM

Question: What does the source list for NS(=O)(=O)c1ccc(CCNC(=O)c2cc(-c3ccncc3)nc3ccc(Cl)cc23)cc1 [TP-C2-38]?
Answer: Inhibition (%) @10 μg/ml [1]: 89.98±1.62%; IC50 [1, 3]: 7.88 ± 0.35 µM

Question: For CC(=O)Nc1cccc(NC(=O)c2cc(-c3ccncc3)nc3ccc(Br)cc23)c1 [TP-C2-39], which “Inhibition (%) @10 μg/ml” value [1] is on record?
Answer: 75.1±0.83%

Question: Which “Inhibition (%) @10 μg/ml” value [1] does the source give for NC(=O)c1ccccc1NC(=O)CSc1nc(O)c(-c2ccccc2)c(=O)[nH]1 [TP-C2-41] here?
Answer: 90.36±1.3%

Question: What about the IC50 [1, 3] of the same compound?
Answer: 6.12 ± 0.81 µM

Question: For CCOc1cc(CNCCc2ccc(S(N)(=O)=O)cc2)ccc1OCc1ccccc1.Cl [TP-C2-42], which “Inhibition (%) @10 μg/ml” value [1] is on record?
Answer: 23.47±2.17%

Question: With Cc1ccc(C(=O)CSc2nc3ccccc3c(=O)n2N)o1 [TP-C2-43] as the compound, how does the “Inhibition (%) @10 μg/ml” value [1] read?
Answer: 55.24±1.85%

Question: For O=C(NCCOc1ccccc1)c1n[nH]c(=O)c2ccccc12 [TP-C2-44], which “Inhibition (%) @10 μg/ml” value [1] is on record?
Answer: 52.94±2.54%

Question: For COc1ccc(-c2nnc(SC(CC(=O)NCc3ccco3)c3ccc(C)cc3)[nH]2)cc1 (stereo not drawn) [TP-C2-45], which “Inhibition (%) @10 μg/ml” value [1] is on record?
Answer: 65.92±4.36%

Question: Which “Inhibition (%) @10 μg/ml” value [1] does the source give for Cc1ccccc1C(=O)NC(=S)Nc1ccc(NC(=O)c2cc3ccccc3o2)cc1 [TP-C2-47] here?
Answer: 67.14±5.68%

Question: Which “Inhibition (%) @10 μg/ml” value [1] does the source give for c1ccc(-c2cc(-c3ccc4c(c3)OCCO4)c(-c3ccccc3)nn2)cc1 [TP-C2-48] here?
Answer: 43.96±2.34%

Question: Which “Inhibition (%) @10 μg/ml” value [1] does the source give for CC(=O)c1cccc(NC(=O)CSc2nnc(CSCc3ccccc3F)n2C)c1 [TP-C2-49] here?
Answer: 63.31±0.29%

Question: With O=C(NC(=S)Nc1cccc2c(O)cccc12)c1ccc(-c2ccccc2)cc1 [TP-C2-50] as the compound, how does the inhibition at 10 µg/mL [1] read?
Answer: 97.8 ± 1.13%

Question: And the IC50 [1, 3]?
Answer: 1.73 ± 0.17 µM

Question: What about the IC50 [1, 4] of the same compound?
Answer: 1.73 µM

Question: For CN1C(=O)c2ccc(C(=O)NCc3ccccn3)cc2C1=O [TP-C2-51], which “Inhibition (%) @10 μg/ml” value [1] is on record?
Answer: 77.63±0.16%

Question: Which “Inhibition (%) @10 μg/ml” value [1] does the source give for O=C(COc1ccc(S(=O)(=O)N2CCc3ccccc32)cc1)NCc1cccnc1 [TP-C2-52] here?
Answer: 64.42±0.23%

Question: For Cc1cc(S(=O)(=O)Nc2ccc(F)cc2)ccc1OCC(=O)NCc1cccnc1 [TP-C2-53], which “Inhibition (%) @10 μg/ml” value [1] is on record?
Answer: 77.43±0.89%

Question: With O=C(Nc1ccccn1)c1cc(-c2ccncc2)nc2ccccc12 [TP-C2-54] as the compound, how does the “Inhibition (%) @10 μg/ml” value [1] read?
Answer: 60.19±2.33%

Question: For O=C(Nc1ccccc1C(=O)NCc1cccnc1)c1cccc(F)c1 [TP-C2-55], which “Inhibition (%) @10 μg/ml” value [1] is on record?
Answer: 81.27±3.01%

Question: What about the IC50 [1, 3] of the same compound?
Answer: 8.21 ± 0.46 µM

Question: With Cc1ccc2c(c1)C(Cc1nc3ccccc3c(=O)n1CCc1ccccc1)C(=O)N2 (stereo not drawn) [TP-C2-56] as the compound, how does the “Inhibition (%) @10 μg/ml” value [1] read?
Answer: 74.86±1.02%

Question: Which “Inhibition (%) @10 μg/ml” value [1] does the source give for O=C(Nc1ccc2c(c1)OCCO2)C1CC(=O)N(CCc2c[nH]c3ccc(F)cc23)C1 (stereo not drawn) [TP-C2-57] here?
Answer: 48.64±1.91%

Question: Which “Inhibition (%) @10 μg/ml” value [1] does the source give for CC(=O)c1cccc(NC(=O)CSc2nnc(-c3ccccc3)c(=O)[nH]2)c1 [TP-C2-58] here?
Answer: 50.65±0.04%

Question: With O=C(c1n[nH]c(=O)c2ccccc12)N1CCOC(COc2ccccc2)C1 (stereo not drawn) [TP-C2-59] as the compound, how does the “Inhibition (%) @10 μg/ml” value [1] read?
Answer: 74.19±1.14%

Question: With Cc1nc(-c2cccnc2)sc1C(=O)NCc1ccccn1 [TP-C2-60] as the compound, how does the “Inhibition (%) @10 μg/ml” value [1] read?
Answer: 66.88±8.04%

Question: Which results are given for O=C(NC(=S)Nc1ccc(NC(=O)c2ccc(Cl)cc2Cl)cc1)c1ccccc1 [TP-C3-1]?
Answer: inhibition at 5 µg/mL ([1]; 5 μg/mL, n ≥ 2): 63 ± 0.86%; IC50 [1, 3]: 1.85 µM

Question: For CC(C)(C)c1ccc(C(=O)Nc2ccc(NC(=S)NC(=O)c3ccccc3)cc2)cc1 [TP-C3-2], which inhibition at 5 µg/mL ([1]; 5 μg/mL, n ≥ 2) is on record?
Answer: 33.4 ± 1.74%

Question: What about the IC50 [1, 3] of the same compound?
Answer: 27.1 µM

Question: And the “fold decrease in activity compared with compound TP-C3-3” value ([1]; from IC50 values)?
Answer: ~ 10 fold

Question: Which inhibition at 5 µg/mL ([1]; 5 μg/mL, n ≥ 2) does the source give for Cc1cccc(C(=O)Nc2ccc(NC(=S)NC(=O)c3ccccc3)cc2)c1 [TP-C3-3] here?
Answer: 67.3 ± 0.78%

Question: What about the IC50 [1, 3] of the same compound?
Answer: 2.82 µM

Question: Which inhibition at 5 µg/mL ([1]; 5 μg/mL, n ≥ 2) does the source give for CCCOc1cccc(C(=O)NC(=S)Nc2ccc(NC(=O)c3ccccc3)cc2)c1 [TP-C3-14] here?
Answer: 43 ± 1.08%

Question: What about the IC50 [1, 3] of the same compound?
Answer: 22.7 µM

Question: For COc1ccc(C(=O)NC(=S)Nc2ccc(NC(=O)c3ccccc3)cc2)cc1[N+](=O)[O-] [TP-C3-15], which inhibition at 5 µg/mL ([1]; 5 μg/mL, n ≥ 2) is on record?
Answer: 35.1 ± 0.63%

Question: And the IC50 [1, 3]?
Answer: 13.8 µM

Question: And the “fold decline in activity compared to TP-C2-9” value ([1]; from IC50 values)?
Answer: ~ 10 fold

Question: With COc1cc(NC(=S)NC(=O)c2ccc(C)cc2C)ccc1NC(=O)c1ccccc1Cl [TP-C3-21] as the compound, how does the inhibition at 5 µg/mL ([1]; 5 μg/mL, n ≥ 2) read?
Answer: 71.19 ± 0.29%

Question: And the IC50 [1, 3]?
Answer: 2.74 µM

Question: With Cc1cc(NC(=S)NC(=O)c2ccc(C)c([N+](=O)[O-])c2)ccc1NC(=O)c1ccccc1 [TP-C3-26] as the compound, how does the inhibition at 5 µg/mL ([1]; 5 μg/mL, n ≥ 2) read?
Answer: 23.11 ± 0.13%

Question: What about the IC50 [1, 3] of the same compound?
Answer: 48.6 µM

Question: With COc1ccc(Cl)cc1C(=O)NC(=S)Nc1ccc(NC(=O)c2ccccc2)c(C)c1 [TP-C3-27] as the compound, how does the inhibition at 5 µg/mL ([1]; 5 μg/mL, n ≥ 2) read?
Answer: 47.9 ± 0.05%

Question: What about the IC50 [1, 3] of the same compound?
Answer: 19.8 µM

Question: What does the source list for Cc1cc(NC(=S)NC(=O)c2ccc(Cl)c(Cl)c2)ccc1NC(=O)c1ccccc1 [TP-C3-29]?
Answer: inhibition at 5 µg/mL ([1]; 5 μg/mL, n ≥ 2): 57.95 ± 0.29%; IC50 [1, 3]: 28.2 µM

Question: For CCc1ccc(C(=O)NC(=S)Nc2ccc(NC(=O)c3cccc(Cl)c3)cc2)cc1 [TP-C3-43], which inhibition at 5 µg/mL ([1]; 5 μg/mL, n ≥ 2) is on record?
Answer: 77.74 ± 0.42%

Question: And the IC50 [1, 3]?
Answer: 1.64 µM

Question: With Cc1cccc(C(=O)Nc2ccc(NC(=S)NC(=O)c3ccccc3Cl)cc2)c1 [TP-C3-45] as the compound, how does the inhibition at 5 µg/mL ([1]; 5 μg/mL, n ≥ 2) read?
Answer: 49.3 ± 0.95%

Question: And the IC50 [1, 3]?
Answer: 2.41 µM

Question: Which inhibition at 5 µg/mL ([1]; 5 μg/mL, n ≥ 2) does the source give for CCCOc1ccc(C(=O)NC(=S)Nc2ccc(NC(=O)c3ccc(C(C)(C)C)cc3)cc2)cc1 [TP-C3-52] here?
Answer: 7.88 ± 0.59%

Question: What about the IC50 [1, 3] of the same compound?
Answer: 36.7 µM

Question: What does the source list for CCc1ccc(C(=O)NC(=S)Nc2ccc(NC(=O)c3ccc(Cl)cc3Cl)cc2)cc1 [TP-C3-55]?
Answer: inhibition at 5 µg/mL ([1]; 5 μg/mL, n ≥ 2): 60.22 ± 0.55%; IC50 [1, 3]: 3.47 µM

Question: What does the source list for COc1ccc2cc(-c3nc(-c4ccc([S+](C)[O-])cc4)[nH]c3-c3ccncc3)ccc2c1 (stereo not drawn) [Tie-2 inhibitor, reference compound]?
Answer: Kinase Inhibition (%) at 5 μg/mL (± SD) ([1]; 5 μg/mL, n ≥ 2): 93.01 ± 1.02%; Inhibition (%) @10 μg/ml [1]: 95.2±1.58%; IC50 [2]: 0.25 µM
